The record followed here is patent EP0006352A1, “Hydantoins and thiohydantoins, process for their preparation and pharmaceutical compositions containing them” (BEECHAM GROUP PLC, priority 1978, dated 1980).

Assay [1] deals with 5-hydroxytryptamine induce bronchoconstriction. The experiment in a line: Inhibition of 5-hydroxytryptamine induced bronchoconstriction in the anaesthetised, artificially respired guinea-pig (Konzett-Rossler preparation). As to conditions: Cavia porcellus, iv. It is filed as in vivo. The text has this: (a) The Compounds were examined for their ability to inhibit 5-hydroxytryptamine induce bronchoconstriction in the anaesthetised, artificially respired guinea-pig (Konzett-Rossler preparation).

The subject of assay [2] is bronchoconstriction induced by an histamine aerosol. Put plainly: Protection of conscious guinea-pigs against histamine aerosol induced bronchoconstriction (Herxheimer test). As to conditions: 10 gg/ml by aerosol. It counts as in vivo. On the procedure: (b) The Compounds were also examined for their ability to protect conscious guinea-pigs against bronchoconstriction induced by an histamine aerosol (Herxheimer test). The Compounds were administered by aerosol.
The aerosol was produced in the following manner.
Water soluble compounds were dissolved in normal saline at a concentration of 1 mg/ml. Water insoluble compounds were dissolved in ethanol at a concentration of 10 mg/ml. These solutions were then diluted to the test concentrations with normal saline.

Broadly, the ED50 is the dose that gives a 50% effect, or the effect in half of the subjects. `CCCCCCC(C)(O)CCN1C(=O)N(CC#N)C(=O)C1CC=CCCCC(=O)OCC` (stereo not drawn) [Compound 2, 1-(3'-hydroxy-3'-methyl-n-nonyl)-3-cyanomethyl-5-(6"-ethoxycarbonyl-n-hex-2"-enyl) hydantoin] gave a 50% effective dose (ED50) in assay [1] of 1.1 µg/kg. For the same compound, the “increase in pre-convulsive coughing time” value in assay [2] (2 minutes after dosing) worked out at 178%; in assay [2] (after 10 minutes), 39%.
